Literature values, collected in publication PMC5963526 (Biochimica et biophysica acta, 2018).

SMILES | protection of the retina from light damage (retina) | protection against LIRD (rats)
CC1=C(/C=C/C(C)=C/C=C/C(C)=C\C(=O)O)C(C)(C)CCC1 [13-cis-retinoic acid] | protects the retina from light damage | 
CC(C)(C)[N+]([O-])=Cc1ccccc1 [PBN, a-phenyl-N-tert-butylnitrone] |  | complete protection
